Numbered stars: 1 amine (or outer) side, 2 acyl side, 3 side chain; on linkers, the order of the positions; unused ones are H or OH. Bridge positions count the residues as written; N and C are the ends. Square brackets hold non-standard residues; d marks the D form. Peptide text beside a SMILES is read from it. Trp(βS-Me,7-OMe) = COc1cccc2c([C@H](C)[C@H](N)C(=O)O)c[nH]c12; Ala(1-bicyclo(1.1.1)pentyl) = N[C@@H](CC12CC(C1)C2)C(=O)O; Phe(3-CH2NH2) = O=C([C@H](Cc1cccc(CN[*:3])c1)N[*:1])[*:2]; Phe(4-CH2COOH) = N[C@@H](Cc1ccc(CC(=O)O)cc1)C(=O)O; Trp(4-Cl) = N[C@@H](Cc1c[nH]c2cccc(Cl)c12)C(=O)O; Trp(7-Cl) = N[C@@H](Cc1c[nH]c2c(Cl)cccc12)C(=O)O; Phe(4-CONH2) = NC(=O)c1ccc(C[C@H](N)C(=O)O)cc1; Phe(4-COOH) = N[C@@H](Cc1ccc(C(=O)O)cc1)C(=O)O; Trp(7-aza) = N[C@@H](Cc1c[nH]c2ncccc12)C(=O)O; Phe(4-CH2NH2) = NCc1ccc(C[C@H](N)C(=O)O)cc1; Trp(1-Me) = Cn1cc(C[C@H](N)C(=O)O)c2ccccc21; Pip(5R-OH) = O=C(O)[C@@H]1CC[C@@H](O)CN1; αMeW = C[C@](N)(Cc1c[nH]c2ccccc12)C(=O)O; X1 = O=C([C@@H]1CC[C@H](N[*:1])C1)[*:2]; 1Nal = N[C@@H](Cc1cccc2ccccc12)C(=O)O; 2Nal = N[C@@H](Cc1ccc2ccccc2c1)C(=O)O; 4Pal = N[C@@H](Cc1ccncc1)C(=O)O; NMeE = CN[C@@H](CCC(=O)O)C(=O)O; NMeN = CN[C@@H](CC(N)=O)C(=O)O; NMeDab = CN[C@@H](CCN)C(=O)O; αMeS = C[C@](N)(CO)C(=O)O; NMeA = CN[C@@H](C)C(=O)O; Nle = CCCC[C@H](N)C(=O)O; Sar = CNCC(=O)O

Experiment [1] has as its target T1, human soluble TNFR1 (sTNFR1) (Homo sapiens, UniProt P19438).
T1 construct: made in house; host or cells: Sf21 (baculovirus)
T1 sequence (P19438 with tags, fused parts or gaps): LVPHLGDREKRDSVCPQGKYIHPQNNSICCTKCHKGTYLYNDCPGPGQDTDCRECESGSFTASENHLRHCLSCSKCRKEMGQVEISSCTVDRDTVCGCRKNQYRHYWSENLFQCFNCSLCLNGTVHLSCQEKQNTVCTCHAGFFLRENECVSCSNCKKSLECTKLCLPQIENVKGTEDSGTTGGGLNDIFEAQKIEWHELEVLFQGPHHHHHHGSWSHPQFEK
Briefly: Human sTNFR1-peptide displacement assay (LanthaScreen Eu TR-FRET binding assay). In outline: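 Readout is the 665/615 nm TR-FRET ratio (Eu anti-His donor, streptavidin-Alexa647 acceptor), normalized to DMSO and saturating displacer, fit by Morrison-based five-parameter logistic for Kd^app. His-tagged sTNFR1 (1-211) prebound to 100 nM biotinylated peptide SEQ ID NO.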
For orientation: In TR-FRET formats the signal depends on donor and acceptor labels being close together.

The target in another experiment is T2, human TNFR2 ECD protein (Homo sapiens, UniProt P20333).
T2 construct: HRV 3C protease cleavage site (C); 6His (C, cleaved yes); made in house; host or cells: Sf21 insect cells (baculovirus), secreted
T2 sequence (P20333 23-257): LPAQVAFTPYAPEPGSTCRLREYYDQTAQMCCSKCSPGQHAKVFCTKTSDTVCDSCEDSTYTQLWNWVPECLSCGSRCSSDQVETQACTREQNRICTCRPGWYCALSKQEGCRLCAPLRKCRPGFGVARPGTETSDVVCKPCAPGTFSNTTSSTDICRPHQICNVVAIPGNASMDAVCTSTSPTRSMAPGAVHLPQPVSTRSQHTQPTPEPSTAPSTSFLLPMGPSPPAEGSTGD
Briefly: SPR off-target binding (selectivity) to human TNFR2 ECD. In outline: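 SPR kinetics: peptides over captured avi-biotinylated receptor ECDs, TNFR1 for affinity, TNFR2 run in parallel for off-target binding. Running buffer HEPES pH 7.4 with 150 mM NaCl, 3 mM EDTA, 0.05% P20, 2% DMSO; surface regenerated between analytes. Affinity derived from kon/koff.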

In general, IC50 refers to the concentration needed to halve the response being measured. A lower IC50 goes with greater potency in that assay. As a reminder, the Kd is the free concentration of one partner at which half of the binding sites on the other are occupied at equilibrium, for simple one-to-one binding. A high value points to lower affinity. As to `CN1CC(=O)N[C@@H](Cc2c[nH]c3cccc(Cl)c23)C(=O)N[C@H](C(N)=O)CSCC(=O)N[C@@H](CC23CC(C2)C3)C(=O)N[C@@H](Cc2cccc(CN)c2)C(=O)N[C@@H](CO)C(=O)N[C@@H](Cc2c[nH]c3c(Cl)cccc23)C(=O)N2CCC[C@@H]2C(=O)N(C)[C@@H](CC(N)=O)C(=O)N[C@@H](Cc2ccc(C(=O)O)cc2)C(=O)N[C@@H](Cc2c[nH]c3c(Cl)cccc23)C(=O)N[C@@](C)(CO)C(=O)N[C@@H](Cc2ccc(C(=O)O)cc2)C(=O)N[C@@H](Cc2cccc(CN)c2)C1=O` [SEQ ID NO. 222] ({CH2CO}-[Ala(1-bicyclo(1.1.1)pentyl)][Phe(3-CH2NH2)]S[Trp(7-Cl)][dP][NMeN][Phe(4-COOH)][Trp(7-Cl)][αMeS][Phe(4-COOH)][Phe(3-CH2NH2)][Sar][Trp(4-Cl)]C-NH2; thioether N-14), in experiment [1], the IC50 came to 1.73 nM. For the same molecule, at human TNFR2 ECD protein, the Kd was > 1000 nM.
The molecule `CCCC[C@@H]1NC(=O)CSC[C@@H](C(N)=O)NC(=O)[C@H](Cc2cn(C)c3ccccc23)NC(=O)CN(C)C(=O)[C@H](Cc2ccc(O)cc2)NC(=O)[C@H](Cc2ccc(C(=O)O)cc2)NC(=O)[C@](C)(CO)NC(=O)[C@H](Cc2c[nH]c3c(Cl)cccc23)NC(=O)[C@H](Cc2ccncc2)NC(=O)[C@H](CC(N)=O)NC(=O)[C@H](CCC(=O)O)N(C)C(=O)[C@H](Cc2c[nH]c3ncccc23)NC(=O)[C@H](CO)NC(=O)[C@H](Cc2ccncc2)NC1=O` [SEQ ID NO. 223] ({CH2CO}-[Nle][4Pal]S[Trp(7-aza)][NMeE]N[4Pal][Trp(7-Cl)][αMeS][Phe(4-COOH)]Y[Sar][Trp(1-Me)]C-NH2; thioether N-14) returned an IC50 in experiment [1] of 0.39 nM. In addition, the dissociation constant (Kd) in experiment [1] is 0.48 nM; on human TNFR2 ECD protein, > 1000 nM.
Consider `CCCC[C@@H]1NC(=O)CSC[C@@H](C(N)=O)NC(=O)[C@](C)(Cc2c[nH]c3ccccc23)NC(=O)CN(C)C(=O)[C@H](Cc2ccc(O)cc2)NC(=O)[C@H](Cc2ccc(CC(=O)O)cc2)NC(=O)[C@](C)(CO)NC(=O)[C@H](Cc2c[nH]c3c(Cl)cccc23)NC(=O)[C@H](Cc2ccncc2)NC(=O)[C@H](CC(N)=O)NC(=O)[C@H](CCC(=O)O)N(C)C(=O)[C@H](Cc2c[nH]c3ncccc23)NC(=O)[C@H](CO)NC(=O)[C@H](Cc2ccc(CN)cc2)NC1=O` [SEQ ID NO. 224] ({CH2CO}-[Nle][Phe(4-CH2NH2)]S[Trp(7-aza)][NMeE]N[4Pal][Trp(7-Cl)][αMeS][Phe(4-CH2COOH)]Y[Sar][αMeW]C-NH2; thioether N-14), for which the IC50 in experiment [1] turned out to be 1.7 nM. Further, at human TNFR2 ECD protein, the Kd is > 1000 nM.
In experiment [1], `C[C@H]1C(=O)N[C@@H](CC(N)=O)C(=O)N[C@@H](Cc2ccncc2)C(=O)N[C@@H](Cc2ccc3ccccc3c2)C(=O)N[C@@](C)(CO)C(=O)N[C@@H](Cc2ccc(C(=O)O)cc2)C(=O)N[C@@H](Cc2ccc(O)cc2)C(=O)N(C)CC(=O)N[C@@H](Cc2c[nH]c3ccccc23)C(=O)N[C@H](C(N)=O)CSCC(=O)N[C@@H](CCCCN)C(=O)N[C@@H](Cc2ccncc2)C(=O)N[C@@H](CO)C(=O)N[C@@H](Cc2cccc3ccccc23)C(=O)N1C` [SEQ ID NO. 227] ({CH2CO}-K[4Pal]S[1Nal][NMeA]N[4Pal][2Nal][αMeS][Phe(4-COOH)]Y[Sar]WC-NH2; thioether N-14) showed a half-maximal inhibitory concentration (IC50) of 4.02 nM. Moreover, the Kd on human TNFR2 ECD protein is > 1000 nM.
For the molecule `CCCC[C@@H]1NC(=O)[C@@H]2CC[C@@H](C2)NC(=O)[C@H]([C@@H](C)c2c[nH]c3c(OC)cccc23)NC(=O)CN(C)C(=O)[C@H](Cc2ccc(C(N)=O)cc2)NC(=O)[C@H](Cc2ccc(C(N)=O)cc2)NC(=O)[C@](C)(CO)NC(=O)[C@H](Cc2c[nH]c3c(Cl)cccc23)NC(=O)[C@H](Cc2ccncc2)NC(=O)[C@H](CC(N)=O)NC(=O)[C@H](CCC(=O)O)N(C)C(=O)[C@H](Cc2c[nH]c3ccccc23)NC(=O)[C@@H]2CC[C@@H](O)CN2C(=O)[C@H](Cc2ccncc2)NC1=O` [SEQ ID NO. 229] (cyclo([4Pal][Trp(7-Cl)][αMeS][Phe(4-CONH2)][Phe(4-CONH2)][Sar][Trp(βS-Me,7-OMe)][X1][Nle][4Pal][Pip(5R-OH)]W[NMeE]N)), the Kd was 0.1 nM in experiment [1] and > 1000 nM on human TNFR2 ECD protein.
In experiment [1], `CCCC[C@@H]1NC(=O)CSC[C@@H](C(N)=O)NC(=O)[C@](C)(Cc2c[nH]c3ccccc23)NC(=O)CN(C)C(=O)[C@H](Cc2ccc(O)cc2)NC(=O)[C@H](Cc2ccc(C(=O)O)cc2)NC(=O)[C@](C)(CO)NC(=O)[C@H](Cc2c[nH]c3c(Cl)cccc23)NC(=O)[C@H](Cc2ccncc2)NC(=O)[C@H](CC(N)=O)NC(=O)[C@H](CCC(=O)O)N(C)C(=O)[C@H](Cc2c[nH]c3ncccc23)NC(=O)[C@H](CCN)N(C)C(=O)[C@H](Cc2ccncc2)NC1=O` [SEQ ID NO. 231] ({CH2CO}-[Nle][4Pal][NMeDab][Trp(7-aza)][NMeE]N[4Pal][Trp(7-Cl)][αMeS][Phe(4-COOH)]Y[Sar][αMeW]C-NH2; thioether N-14) gave an IC50 of 2.63 nM. Also, the Kd at human TNFR2 ECD protein is > 1000 nM.

The values are drawn from patent publication US20240287138A1, “CYCLIC PEPTIDES FOR INHIBITING TNF RECEPTOR 1 ACTIVITY” (Merck Sharp & Dohme LLC, priority 2023, published 2024).
